# Assay results: paper PMC5656322, “BAK1 is involved in AtRALF1-induced inhibition of root cell expansion” (PLoS Genetics, 2017)
# Where no end group is shown, it is not given here.
# Legend:
# [1] = system: Arabidopsis seedlings, primary root; experiment: Root growth inhibition assay, liquid medium, 24-well plates; format: in vivo, Arabidopsis thaliana; conditions: 10 μM, 2 days
# Experimental: (A) and (B) Arabidopsis seedlings (2 days old) were treated with 10 μM AtRALF1 or water (H20) for 2 days. The values are the mean ± SD of at least 25 seedlings. Triple asterisks indicate P < 0.01 (Student’s t test); ns, not significant. (C) Four-day-old seedlings were transferred to media containing different concentrations of AtRALF1, and the primary root length was measured after 8 days of treatment. The data represent the mean value ± SD of 30 seedlings. […] Representative Arabidopsis seedlings after 8 days of treatment with AtRALF1 are shown below. Seedlings were arranged on plates after the treatment for imaging. Scale bars, 1 cm. (D) Two-day-old seedlings were treated with 10 μM AtRALF1 or water for 2 days, and root cell length was measured after 2 days of treatment. Cells from the root endodermis in the differentiation zone were measured. The values are the mean ± SD of approximately 150 cells. Triple asterisks indicate P < 0.01 (Student’s t test); ns, not significant.
# Aliquots of 1 ml of medium containing seeds were distributed into 24-well plates. The peptides (10 μM) were added after 2 days, and the root length was measured 2 days after treatment. To maximize root growth, the seeds were germinated in vertical plates. […] The root length was measured 8 days after treatment unless stated otherwise. Control plants were grown under identical conditions in a peptide-free medium. Quantitative data were obtained as previously described. The experiments were repeated at least 3 times using independent biological replicates with similar results. The data from one representative experiment are shown. For cell length measurements, AtRALF1 peptide (10 μM) was added after 2 days of germination, and the cell length was measured after 2 days of treatment. The cell wall was stained with a 1 mg ml^-1 propidium iodide solution (Sigma) in the dark for 15 min and washed twice with water. Cells of the endodermis of the root differentiation zone were imaged and measured using confocal microscopy (Olympus FV1000). Approximately 30 plants from each genetic background and at least 5 cells per root were measured. The wavelengths for excitation and emission were 555 and 655 nm, respectively. Image processing was completed using the Olympus FluoView software.
# Arabidopsis seedlings (2-days-old) were treated with 10 μM AtRALF1 or water (H20) for 2 days. The values are the mean ± SD of at least 25 seedlings. Triple asterisks indicate P < 0.01 (Student’s t test); ns, not significant. (PDF) Click here for additional data file.
# Supplementary file pgen.1007053.s002.pdf: S2 Fig Loss-of-function bak1 mutants are sensitive to the inhibitory activity of AtRALF23/34 on root growth. Arabidopsis seedlings (2-day-old) were treated with 10 μM RALF1(9–49), RALF1(I6A), AtRALF1, AtRALF23 and AtRALF34 or water (H20) for 2 days. The values are the mean ± SD of at least 20 seedlings. […] (PDF) Click here for additional data file.
# HA-BAK1-ECD = experiment: Co-immunoprecipitation in vitro; format: binding, Arabidopsis thaliana; conditions: 100 nM each protein, pH 6.3, overnight 4 °C, agarose anti-HA beads
# Experimental: The purified recombinant proteins AtRALF1 and HA-BAK1-ECD and the synthetic peptides RALF1(9–49) and RALF1(I6A) were combined in 200 μl of interaction buffer pH 6.3 (100 mM NaCl; 1 mM PMSF; 0.5%Triton X; 2.7 mM KCl; 8 mM NaH2PO4; 2 mM KH2PO4) overnight at 4 °C. A 100-nM concentration of each protein was used. This solution was incubated with agarose anti-HA beads (EZview Red Anti-HA Affinity Gel, Sigma) for 30 min at 4 °C to immunoprecipitate the proteins, washed 5 times with interaction buffer, eluted in 1X SDS sample buffer containing 10% β-mercaptoethanol and applied to an SDS-PAGE gel. The immunoprecipitated HA-BAK1-ECD and co-immunoprecipitated AtRALF1 were analyzed by protein blotting as described. The primary and secondary antibodies used to detect AtRALF1 were anti-AtRALF1 (1:10,000, Celula B, Immunology Laboratory, UFRGS, Brazil) and goat anti-rabbit HRP-conjugated secondary antibody (1: 10,000, BioRad), respectively.
Substance,root growth inhibition ([1]; bak1-1 and bak1-3 mutants),sensitivity to root growth inhibition ([1]; bak1-4 complemented with pBAK1:BAK1),"root growth inhibition ([1]; bri1-301, bsk3-2, sud1, bes1-D, bzr1-D, BRI OX, DWF4 OX lines)",sensitivity to root growth inhibition ([1]; loss-of-function bak1 mutants (bak1-4)),"root growth inhibition ([1]; serk1, serk2, serk4 (bak7), serk5 (bak8) mutants)",co-immunoprecipitation with HA-BAK1-ECD (HA-BAK1-ECD),activity of negative control peptides on root growth [1]
AtRALF1: root-specific RALF isoform in Arabidopsis; recombinant peptide hormone produced in E. coli (ATTKYISYQSLKRNSVPCSRRGASYYNCQNGAQANPYSRGCSKIARCRS; ends and bridges not checked; cysteine pairing not given here),exhibited no effect,recovered the sensitivity to the inhibitory effect of AtRALF1 treatment,exhibited root growth inhibition by AtRALF1,insensitive to the inhibitory activity of AtRALF1 on root growth,inhibited the root growth,co-immunoprecipitated,
"RALF1(9–49): inactive AtRALF1 peptide which has a deletion of the first 8 amino acids (QSLKRNSVPCSRRGASYYNCQNGAQANPYSRGCSKIARCRS; ends and bridges not checked; cysteine pairing not given here; UniProt Q9SRY3 80-120, looked up, fragment)",,,,,,did not co-immunoprecipitate with BAK1,inactive
